Experimental data reported in patent US20220110985A1, “NUTRITIONAL COMPOSITION COMPRISING 2'FUCOSYLLACTOSE AND 3'GALACTOSYLLACTOSE” (N.V. Nutricia, priority 2019, published 2022).

Key:
[1] = test system: human PBMC, unstimulated; assay: Cytokine production of unstimulated PBMC (IL10, CCL20); type: cell-based; conditions: for CCL20 level as compared to blanc control, in words: unstimulated PBMC; for Relative CCL 20 mean (s.e.): 0.1 w/v % 3′-GL
Description: Isolation of PBMC from healthy donors: Human peripheral blood mononuclear cells (PBMC) from healthy donors were isolated from buffy coats (Sanquin, Amsterdam, the Netherlands). PBMC were obtained by centrifugation using Leucosep tubes (Greiner Bio-One). […] After lysis, the PBMC were resuspended in freezing medium (70% RPMI 1640 medium (Gibco, Thermo Fisher Technologies) supplemented with 10% heat-inactivated FCS and 100 U/ml penicillin-streptomycin, 20% heat-inactivated FCS and 10% DMSO (Sigma)) and cryopreserved. PBMC activation model: PBMC (0.2·10^6 cell/well) were cultured in 96-well flat bottom plates (Corning). For 24 hours the cells were pre-incubated with 2'-FL (Jennewein), 3'-GL (0-0.3% w/v; […] Sigma Aldrich) and combinations thereof. Subsequently, the cells were CD3/CD28-activated (Pelicluster CD3 and Pelicluster CD28, Sanquin) for an additional 24 hours. After incubation, IFNγ was measured by ELISA in the supernatants (see below). […] Roche) and/or 10% Triton (5 μl; negative control). […] Cytokine production of PBMC: PBMC were incubated with indicated reagents. After incubation, the supernatants were collected and IL2, IL6, IL10, IL13, IL21, TNFα, IFNγ, MIF, CCL1, CCL13, CCL17, CCL20, CCL22 and CXCL8-11 levels were measured by conducting a validated multiplex immunoassay based on Luminex technology (xMAP, Luminex Austin Tex. USA). Acquisition was conducted with the Biorad […] (Biorad laboratories, Hercules USA) in combination with xPONENT software version 4.2 (Luminex). Data was analyzed by 5-parametric curve fitting using Bio-Plex Manager software, version 6.1.1 (Biorad). After PBMC stimulation, cell culture supernatants were collected, after which cytokine responses were measured in order to test immune responsiveness of the cells. The levels of cytokines measured in stimulated conditions were corrected for the (low) levels of the cytokines measured in non-stimulated conditions. In addition, since each donor is reacting in its own efficiency onto the T cell stimulus, we calculated the individual index of cytokine response by dividing the intervention induced response by the basal stimulated response.

[2] = test system: Caco-2 cell monolayer; assay: DON-induced impairment of Caco-2 cell monolayer integrity (TEER, lucifer yellow flux); type: cell-based, human; conditions: for effect on DON-induced loss of epithelial barrier integrity (TEER, LY flux), in words: 24 h pretreatment (GLs 0.75 wt. %; 2′-FL 1 mg/ml), then DON 4.2 μM 24 h
Experimental: Beta1,3′-galactosyl-lactose (beta3′-GL), beta1,4′-galactosyllactose (beta4′-GL) and beta1,6′-galactosyl-lactose (beta6′-GL) were obtained from Carbosynth (Berkshire, UK). Alpha1,3′-galactosyl-lactose (alpha3′-GL) was obtained from Elicityl (Crolles, France). Purified deoxydivalenol (DON) (D0156; Sigma Aldrich, St Luis, Mo., USA) was dissolved in pure ethanol and stored at −20° C. Human epithelial colorectal adenocarcinoma (Caco-2) cells were obtained from American […] (Code HTB-37) (Manasse, Va., USA, passage 90-102).
Caco-2 cells were used according to established methods. In brief: cells were cultured in Dulbecco's modified Eagle medium (DMEM) and seeded at a density of 0.3×10^5 cells into 0.3 cm^2 high pore density (0.4 μm) inserts with a polyethylene terephthalate membrane (BD Biosciences, Franklin Lakes, N.J., USA) placed in a 24-well plate. The Caco-2 cells were maintained in a humidified atmosphere of 95 air and 5% CO2 at 37° C.
Caco-2 cell monolayers were thus grown in a transwell system, which is a model for intestinal barrier function. The monolayers were pretreated for 24 h with different GLs, including beta3′-GL, alpha3′-GL, beta4′-GL and beta6′-GL in a concentration of 0.75 wt. % of the GL, before being exposed to the fungal toxin deoxynivalenol (DON), which is a trigger and model compound to impair intestinal barrier. DON was diluted to a final concentration of 4.2 μM in complete cell medium and added to the apical side as well as to the basolateral side of the transwell inserts. […] Incubation with DON was 24 h.
Measurements of the transepithelial electrical resistance (TEER) and lucifer yellow (LY) permeability were conducted to investigate barrier integrity. For TEER measurements a Millicel-ERS voltohmmeter connected to a pair of chopsticks electrodes was used to measure the TEER values. Results are expressed as a percentage of the initial value. For paracellular tracer flux assay the membrane impermeable lucifer yellow (LY) (Sigma, St Luis, Mo., USA) was added in a concentration of 16 μg/ml to the apical compartment in the transwell plate for 4 h, and the paracellular flux was determined by measuring the fluorescence intensity in the basolateral compartment with a spectrophotofluorimeter (FLUOstar Optima, BMG Labtech, Offenburg, Germany) set at excitation and emission wavelengths of 410 and 520 nm, respectively. Release of interleukin-8 (IL-8 or CXCL8), which is a typical marker for inflammation, was quantified in the medium of the apical side and the basolateral side of the Caco-2 transwell inserts in response to the treatments. CXCL8 concentrations were measured by using the human IL-8 ELISA assay (BD Biosciences, Pharmingem, San Diego, Calif., USA) according to manufacturer's instructions. For more details on materials and methods see Akbari et al, 2016, Eur J Nutr. 56(5):1919-1930.

[3] = test system: human peripheral blood mononuclear cells (PBMCs); assay: PBMC cell activity (WST-1); type: cell-based; conditions: after 24 h; non-stimulated and CD3/CD28 stimulated conditions
Experimental: Isolation of PBMC from healthy donors: Human peripheral blood mononuclear cells (PBMC) from healthy donors were isolated from buffy coats (Sanquin, Amsterdam, the Netherlands). PBMC were obtained by centrifugation using Leucosep tubes (Greiner Bio-One). PBMC were collected and washed in PBS (Gibco, Thermo Fisher Technologies)+2% heat-inactivated FCS (Invitrogen), followed by hypotonic lysis of erythrocytes with sterile lysis buffer (0.15 M NH4Cl, 0.01 M KHCO3 and 0.1 mM EDTA, pH of 7.4 at 4° C., all from Merck, Darmstadt, Germany). After lysis, the PBMC were resuspended in freezing medium (70% RPMI 1640 medium (Gibco, Thermo Fisher Technologies) supplemented with 10% heat-inactivated FCS and 100 U/ml penicillin-streptomycin, 20% heat-inactivated FCS and 10% DMSO (Sigma)) and cryopreserved.
PBMC activation model: PBMC (0.2·10^6 cell/well) were cultured in 96-well flat bottom plates (Corning). For 24 hours the cells were pre-incubated with 2′-FL (Jennewein), 3′-GL (0-0.3% w/v; Carbosynth) or sodium butyrate (0.2 mM; Sigma Aldrich) and combinations thereof. Subsequently, the cells were CD3/CD28-activated (Pelicluster CD3 and Pelicluster CD28, Sanquin) for an additional 24 hours. After incubation, IFNγ was measured by ELISA in the supernatants (see below). To determine cell activity after stimulation, PBMC were incubated with cell proliferation reagent WST-1 (10 μl; Roche) and/or 10% Triton (5 μl; negative control). After 3 hours, absorbance was measured at OD450 nm and OD650 nm and cell activity was calculated according to manufacturer's instructions.

[4] = unstimulated, 0.2% w/v 2′-FL, 0.2 mM butyrate, blanc = 1, observed
[5] = Caco-2 monolayer, DON 4.2 μM, 2′-FL 1 mg/ml

Compound | IL10 level as compared to blanc control, in words ([1]; 0.2% 2′-FL, 0.2 mM butyrate) | CCL20 level as compared to blanc control, in words [1] | Relative IL10 level, mean (se) [1, 4] | Relative CCL 20 mean (s.e.) [1, 4] | effect on DON-induced loss of epithelial barrier integrity (TEER, LY flux), in words [2] | Lucifer yellow flux [2, 5] | TEER (% of initial value) Mean (s.e.) [2, 5] | Immune cell activity as measured by WST, in words [3]
C[C@@H]1O[C@@H](O[C@H]2[C@H](O[C@H]3[C@H](O)[C@@H](O)C(O)O[C@@H]3CO)O[C@H](CO)[C@H](O)[C@@H]2O)[C@@H](O)[C@H](O)[C@@H]1O (stereo partly drawn) [2′-FL, α-L-Fuc-(1→2)-β-D-Gal-(1→4)-D-Glc] | significantly (p<0.05) increased level | increased level | 3.361 (1.867) | 2.586 (0.281) | statistically significantly prevent the DON induced reduction in TEER and increase in LYF | 446.4 (8.302)^∧ ng/ml (cm^2xh) | 42.79 (0.844)^∧∧ % of initial value | significantly increased
Gal (beta 1-3)-Gal (beta 1-4)-Glc [3′-GL] | – | did not have a statistically significant effect | – | 1.164 (0.212) | prevented the DON-induced loss of epithelial barrier integrity | – | – | decrease in activation
